# Reference: patent EP0396024A2, “Esters, medicaments containing them and preparation of these esters and medicaments” (Grünenthal GmbH, priority 1989, dated 1990)
# Assays:
# Ratten = experiment: Mean arterial blood pressure in pentobarbital-anaesthetised rats, 10 min i.v. infusion as lipid emulsion; format: in vivo; conditions: mean arterial pressure in % of baseline, mean of 4 rats
# Protocol: So wurde an durch intraperitoneale Injektion von 60 mg/kg Natriumpentobarbital narkotisierten Ratten über einen Carotis-Katheter mit Hilfe eines Druckübermittlers der Blutdruck überwacht. Den Tieren (in Gruppen von je 4 Tieren) wurden dann für jeweils 10 Minuten über einen in die rechte vena femoralis eingesetzten Katheter • 1) 10,0 µg/kg/min der Verbindung A (R₁ = H) • 2) 9,6 µg/kg/min der Verbindung B (R₁ = H) • 3) 6,2 µg/kg/min des Esters der Formel I (X = 0) bzw. • 4) 10,5 µg/kg/min des Esters der Formel I (X = CH₂) injiziert, wobei diese Verbindungen in Form einer Lipidemulsion (vgl. Mizushima et al. J. Pharm. Pharmacol. 34 (1982) 49 - 50 und Ann. Rheum. Dis. 41 (1982) 263 - 267) zur Anwendung kamen. Dabei ergaben sich fol gende Werte des mittleren arteriellen Blutdrucks (in % des Ausgangswertes; jeweils als Mittelwert für die Tiere einer Gruppe): […]
# [1] = system: ADP-induzierten Thrombozytenaggregation; experiment: ADP-induced platelet aggregation (platelet count fall) in the urethane-anaesthetised rat after oral dosing; format: in vivo, Ratte; conditions: 100 µg/kg ADP i.v. bolus
# Protocol: Zur Bestimmung der ADP-induzierten Thrombozytenaggregation an der Urethan-narkotisierten Ratte nach oraler Gabe der Vergleichssubstanzen wurde den Tieren ein Carotis-Katheter eingesetzt und über diesen kontinuierlich Blut entnommen. Nach Zumischen von Natriumzitrat wurde in einem Technicon-Thrombocounter die Thrombozytenzahl bestimmt. 15 Minuten und unmittelbar vor der Gabe der Prüfsubstanz sowie 15, 30, 45 und 60 min. nach der Prüfsubstanzgabe wurden über die vena jugularis jeweils 100 µg/kg ADP als Bolus injiziert und der Thrombozytenabfall unter der ADP-Injektion bestimmt. Der Mittelwert der beiden Werte vor der Prüfsubstanzgabe wurde als Ausgangs-Kontrollwert genommen und die Werte nach Prüfsubstanzgabe als %-Änderung gegenüber diesem Wert bestimmt.
# [2] = system: menschlichen Blutplättchen; conditions: aggregation induced by various agents; compared with natural Prostacyclin; cited from earlier work
# Hunden = conditions: dogs; potency in % of the free acid; cited from earlier work
# [3] = system: durch ADP induzierten Blutplättchenaggregation; conditions: rat plasma; in % of the effect of the free acid; cited from earlier work
# [4] = 15 min after oral dose of 10 mg/kg
# [5] = 30 min after oral dose of 10 mg/kg
# [6] = 45 min after oral dose of 10 mg/kg
# [7] = 60 min after oral dose of 10 mg/kg
compound,measurement,setting,value
"O=C(O)c1cccc(/C=C2/C[C@@H]3[C@@H](/C=C/[C@@H](O)C4CCCCC4)[C@H](O)C[C@@H]3O2)c1 (relative stereo) [A (R₁ = H), 2-Oxa-3Z-(m-carboxybenzyliden)-6β-(3′-S-hydroxy-3′cyclohexyl-1′E-propenyl)-7α-hydroxy-cis-bicyclo[3.3.0] octan, reference compound]",Relativer Blutdruck (%) Minuten nach Injektionsbeginn,"Ratten; 5 min, 10,0 µg/kg/min i.v. for 10 min",64%
same,Relativer Blutdruck (%) Minuten nach Injektionsbeginn,"Ratten; 10 min, 10,0 µg/kg/min i.v. for 10 min",65%
same,Relativer Blutdruck (%) Minuten nach Injektionsbeginn,"Ratten; 20 min, 10,0 µg/kg/min i.v. for 10 min",94%
"O=C(O)c1cccc(/C=C2\C[C@H]3C[C@@H](O)[C@H](/C=C/[C@@H](O)C4CCCCC4)[C@H]3C2)c1 (relative stereo) [B(R₁=H), 3E-(m-Carboxybenzyliden)-6β-(3′S-hydroxy-3′-cyclohexyl-1′E-propenyl)-7α-hydroxy-cis-bicyclo-[3.3.0]octan, reference compound]",Relativer Blutdruck (%) Minuten nach Injektionsbeginn,"Ratten; 5 min, 9,6 µg/kg/min i.v. for 10 min",80%
same,Relativer Blutdruck (%) Minuten nach Injektionsbeginn,"Ratten; 10 min, 9,6 µg/kg/min i.v. for 10 min",84%
same,Relativer Blutdruck (%) Minuten nach Injektionsbeginn,"Ratten; 20 min, 9,6 µg/kg/min i.v. for 10 min",105%
same,Thrombozytenaggregationshemmung in % des Ausgangskontrollwertes nach Minuten,[1]; [4],"68,9±6,8%"
same,Thrombozytenaggregationshemmung in % des Ausgangskontrollwertes nach Minuten,[1]; [5],"55,1±6,7%"
same,Thrombozytenaggregationshemmung in % des Ausgangskontrollwertes nach Minuten,[1]; [6],"51,8±6,4%"
same,Thrombozytenaggregationshemmung in % des Ausgangskontrollwertes nach Minuten,[1]; [7],"38,1±6,3%"
"CCCCCC(O)C#CC1C(O)CC2OC(=CCCCC(=O)OC)CC21 (stereo not drawn) [13,14-Dehydroprostacyclinmethylester]",Aggregationshemmung von menschlichen Blutplättchen,[2],ähnlich wirksam
"CC(C)(C)C(=O)OCOC(=O)c1cccc(/C=C2/C[C@@H]3[C@@H](/C=C/[C@@H](O)C4CCCCC4)[C@H](O)C[C@@H]3O2)c1 [I (X = 0), 2-Oxa-3Z-(m-pivaloyloxymethyloxycarbonyl-benzyliden)-6β-(3′S-hydroxy-3′-cyclohexyl-1′E-propenyl)-7α-hydroxy-cis-bicyclo[3.3.0]octan]",Relativer Blutdruck (%) Minuten nach Injektionsbeginn,"Ratten; 5 min, 6,2 µg/kg/min i.v. for 10 min",58%
same,Relativer Blutdruck (%) Minuten nach Injektionsbeginn,"Ratten; 10 min, 6,2 µg/kg/min i.v. for 10 min",62%
same,Relativer Blutdruck (%) Minuten nach Injektionsbeginn,"Ratten; 20 min, 6,2 µg/kg/min i.v. for 10 min",81%
"CC(C)(C)C(=O)OCOC(=O)c1cccc(/C=C2\C[C@H]3C[C@@H](O)[C@H](/C=C/[C@@H](O)C4CCCCC4)[C@H]3C2)c1 [I(X=CH₂), 3E-(m-Pivaloyloxymethyloxycarbonyl-benzyliden)-6β-(3′S-hydroxy-3′-cyclohexyl-1′E-propenyl)-7α hydroxy-cis-bicyclo[3.3.0]octan]",Relativer Blutdruck (%) Minuten nach Injektionsbeginn,"Ratten; 5 min, 10,5 µg/kg/min i.v. for 10 min",62%
same,Relativer Blutdruck (%) Minuten nach Injektionsbeginn,"Ratten; 10 min, 10,5 µg/kg/min i.v. for 10 min",51%
same,Relativer Blutdruck (%) Minuten nach Injektionsbeginn,"Ratten; 20 min, 10,5 µg/kg/min i.v. for 10 min",69%
same,Thrombozytenaggregationshemmung in % des Ausgangskontrollwertes nach Minuten,[1]; [4],"24,0±3,0%"
same,Thrombozytenaggregationshemmung in % des Ausgangskontrollwertes nach Minuten,[1]; 15 min after oral dose of 100 mg/kg,"59,4±3,0%"
same,Thrombozytenaggregationshemmung in % des Ausgangskontrollwertes nach Minuten,[1]; [5],"28,1±3,8%"
same,Thrombozytenaggregationshemmung in % des Ausgangskontrollwertes nach Minuten,[1]; 30 min after oral dose of 100 mg/kg,"63,3±6,8%"
same,Thrombozytenaggregationshemmung in % des Ausgangskontrollwertes nach Minuten,[1]; [6],"29,1±3,9%"
same,Thrombozytenaggregationshemmung in % des Ausgangskontrollwertes nach Minuten,[1]; 45 min after oral dose of 100 mg/kg,"68,1±2,0%"
same,Thrombozytenaggregationshemmung in % des Ausgangskontrollwertes nach Minuten,[1]; [7],"30,3±4,6%"
same,Thrombozytenaggregationshemmung in % des Ausgangskontrollwertes nach Minuten,[1]; 60 min after oral dose of 100 mg/kg,"71,0±4,4%"
"CCCCCC(O)/C=C/C1C(O)CC2CC(=CCCCC(=O)OC)CC21 (stereo not drawn) [Methylester der (5EZ,13E)(9α,11α,15α)-6,9-methano-11,15-dihydroxyprosta-5,13-diensäure]","Wirkung auf den Blutdruck, relativ zur freien Säure",Hunden,50 - 60%
same,"Hemmung der durch ADP induzierten Blutplättchenaggregation, Wirkung relativ zur freien Säure",[3],~80%
